In patent publication US6090839A, “Antidiabetic agents” (Merck & Co., Inc., priority 1997, dated 2000):

Columns and labels:
human PPARγ2 = target: T1, human PPARγ2 (Homo sapiens, UniProt P37231); assay: PPAR Receptor Binding Assay: [3H]AD-5075 Displacement Assay for PPARγ2; conditions: [3H2]AD-5075, gst-PPARγ2, ~16 h at 4° C., pH 7.2
T1 construct: The full length human cDNA for PPARγ2 and PPARδ were subcloned; made in house; host or cells: E. coli
T1 sequence (P37231 1-505): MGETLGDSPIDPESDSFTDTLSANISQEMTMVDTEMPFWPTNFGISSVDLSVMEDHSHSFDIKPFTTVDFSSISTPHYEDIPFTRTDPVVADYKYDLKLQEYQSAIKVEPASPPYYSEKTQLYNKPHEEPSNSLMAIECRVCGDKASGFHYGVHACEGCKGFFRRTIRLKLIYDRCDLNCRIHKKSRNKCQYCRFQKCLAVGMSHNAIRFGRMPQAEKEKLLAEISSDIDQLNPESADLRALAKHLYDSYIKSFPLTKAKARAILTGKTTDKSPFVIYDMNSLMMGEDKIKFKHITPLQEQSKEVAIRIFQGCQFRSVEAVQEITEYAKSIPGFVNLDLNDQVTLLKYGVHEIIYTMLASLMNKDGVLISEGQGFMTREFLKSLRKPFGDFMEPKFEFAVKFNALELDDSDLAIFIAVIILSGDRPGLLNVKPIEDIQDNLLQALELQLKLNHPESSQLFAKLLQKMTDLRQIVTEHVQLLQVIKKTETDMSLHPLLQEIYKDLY
Description: (§1) Compounds of the instant invention which are useful for the above discussed treatments can be identified and/or characterized by employing the PPARδ, and γ binding assays. The assays are useful in predicting or quantitating in vivo effects having to do with the control or modulation of glucose, free fatty acid, triglyceride, insulin or cholesterol. To evaluate IC50 or EC50, values the compounds were titrated in the appropriate assay using different concentrations of the compound to be tested. To obtain the appropriate values (%Inhibition-IC50, or %Activation-EC50), the data resulting from the assays were then analyzed by determining the best fit of a 4 parameter function to the data using the Levenberg-Marquardt non-linear fitting algorithm in Kaleidagraph (Synergy Software, Reading, Pa). The human nuclear receptor cDNA for PPARδ (hPPARδ) has been cloned from a human osteosarcoma cell cDNA library and is fully described in A. Schmidt et al., Molecular Endocrinology, 6:1634-1641 (1992), herein incorporated by reference in its entirety. See A. Elbrecht et al., Biochem. and Biophy. Res. Comm. 224:431-437 (1996) and T. Sher et al., Biochem. 32:5598-5604 (1993) for a description of the human nuclear receptor gene PPARγ, and α.
Human PPARγ2 and PPARδ, independently, were prepared as gst-fusion proteins in E. coli. […]

human PPARδ = target: T2, human PPARδ (Homo sapiens, UniProt Q03181); assay: PPAR Receptor Binding Assay: [3H2]Example 11 Displacement Assay for PPARδ; conditions: [3H2]Example 11, gst-PPARδ, ~16 h at 4° C., pH 7.2
T2 construct: The full length human cDNA for PPARγ2 and PPARδ were subcloned; made in house; host or cells: E. coli
T2 sequence (Q03181 1-441): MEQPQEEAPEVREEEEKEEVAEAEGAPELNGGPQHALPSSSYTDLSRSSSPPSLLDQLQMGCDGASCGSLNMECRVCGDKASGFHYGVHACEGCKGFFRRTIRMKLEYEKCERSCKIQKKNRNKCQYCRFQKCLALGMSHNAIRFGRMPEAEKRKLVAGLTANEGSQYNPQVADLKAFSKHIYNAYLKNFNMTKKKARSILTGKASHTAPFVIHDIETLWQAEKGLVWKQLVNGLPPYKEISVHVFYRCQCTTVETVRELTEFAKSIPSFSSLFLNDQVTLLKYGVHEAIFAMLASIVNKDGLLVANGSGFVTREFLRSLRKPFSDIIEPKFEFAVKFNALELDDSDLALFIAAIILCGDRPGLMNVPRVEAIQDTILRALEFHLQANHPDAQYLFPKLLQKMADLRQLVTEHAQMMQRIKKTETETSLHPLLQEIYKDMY
Description: as §1
The hPPARδ binding assay comprises the steps of: […]

Row | Compound | Kd (human PPARγ2) [nM] | Kd (human PPARδ) [nM]
1 | Cc1oc(-c2ccccc2)nc1C(O)COc1ccc(CC2SC(=O)NC2=O)cc1 (centres unmarked) [AD-5075] | ~1 | –
2 | CCCc1c(OCCc2cc3c4c(ccc3o2)C(C(=O)O)CCC4)ccc2c(-c3ccccc3)noc12 (centres unmarked) [Example 11, 2-(2-(3-phenyl-7-propylbenz[4,5]isoxazol-6-yloxy)ethyl)-4,5,6,7-tetrahydronaphtho[2,1-b]furan-7-carboxylic acid] | – | ~1
